# Laboratory results as given in patent US11230524B2, “Myocyte enhancer factor 2 (MEF2) modulators” (STANDARD LLC, priority 2017, dated 2022).
# Target: MEF2D/HDAC4 protein-protein interactions (Homo sapiens (Human), UniProt Q14814)
# Experiment: Mammalian two-hybrid assay, inhibition of MEF2D and HDAC4 protein interactions (luciferase reporter in HeLa cells)
# Assay type: cell-based
# Conditions: HeLa cells co-transfected with GAL4-MEF2D, HDAC4-VP16 and Gal4Luc; overnight treatment; luciferase normalized to Renilla
# Description: Detection of MEF2D and HDAC4 interactions. In this mammalian two-hybrid assay, HDAC4 and MEF2D proteins were used. […] Human epithelial carcinoma cells (HeLa) were co-transfected with the two DNA constructs (GAL4-MEF2D and HDAC4-VP16) and a reporter plasmid (Gal4Luc). […] MEF2D and HDAC4 protein interactions were detected as a result of the GAL4-MEF2D and HDAC4-VP16 protein complex binding a DNA promoter on the reporter plasmid (Gal4Luc) and driving cellular expression of a luciferase gene. The measured luciferase protein signal was proportional to the amount of MEF2D and HDAC4 protein interactions occurring with the cell.
# The HDAC4 fragment lacked the catalytic domain so that the deacetylase activity was excluded from the assay.
# Detection of inhibition of MEF2D and HDAC4 interactions. Next, the assay was used to test whether the compounds could disrupt the interactions between MEF2D and HDAC4. After co-expressing the GAL4-MEF2D and HDAC4-VP16 DNA constructs and reporter plasmid, the HeLa cells were treated with a test compound (10 μM) overnight. Cells transfected with the positive control GAL4VP16 fusion construct and reporter plasmid were also treated with the test compound (10 μM) overnight. As another control, DMSO was added (but kept below 0.2% V/V) to cells transfected with the positive GAL4VP16 fusion construct or the GAL4-MEF2D and HDAC4-VP16 DNA constructs. A luciferase assay was performed as described above according to the manufacturer's protocol (Promega). The luciferase response was normalized against the Renilla Luciferase as an internal control.
# The relative activity and IC50 calculations. […] The relative activity, I, was the ratio of former to later, i.e. X/Y, expressed in percentile. […] The IC50 was the concentration of the compounds when X/Y equals 50.
# MEF2D/HDAC4 protein-protein interactions, sequence (Q14814 whole entry, species assumed): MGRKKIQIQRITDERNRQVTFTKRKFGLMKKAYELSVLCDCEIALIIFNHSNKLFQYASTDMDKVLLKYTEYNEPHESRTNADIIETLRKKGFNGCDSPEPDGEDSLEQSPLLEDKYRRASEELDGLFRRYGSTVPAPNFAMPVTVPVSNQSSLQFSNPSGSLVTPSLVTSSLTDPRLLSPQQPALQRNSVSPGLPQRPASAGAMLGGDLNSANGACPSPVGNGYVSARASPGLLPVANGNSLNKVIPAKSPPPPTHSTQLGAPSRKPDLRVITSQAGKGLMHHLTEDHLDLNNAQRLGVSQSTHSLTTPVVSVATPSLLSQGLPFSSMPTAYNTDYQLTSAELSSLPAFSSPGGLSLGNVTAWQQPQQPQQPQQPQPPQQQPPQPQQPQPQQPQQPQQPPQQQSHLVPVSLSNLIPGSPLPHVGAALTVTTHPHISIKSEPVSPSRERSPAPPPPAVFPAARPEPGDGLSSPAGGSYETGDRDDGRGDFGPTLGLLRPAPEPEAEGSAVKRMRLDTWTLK
row,IC50 [nM],SMILES
1,18000,Nc1ccccc1NC(=O)/C=C/c1ccc(F)c(CNc2ccccc2)c1 [ST11]
2,420,N#Cc1cccc(NCc2cccc(/C=C/C(=O)NO)c2)c1 [ST23]
3,> 20000,Nc1ccccc1NC(=O)/C=C/c1cccc(Nc2nccc(-c3cccnc3)n2)c1 [ST48]
4,1040,CCOC(=O)N[C@H](CCCCC(=O)Nc1ccccc1N)C(=O)Nc1cccc(Br)c1 [ST95]
5,1460,CCOC(=O)NC(CCCCC(=O)Nc1ccccc1N)C(=O)Nc1ccccc1 (stereo not drawn) [ST91]
6,1490,Nc1ccccc1NC(=O)/C=C/c1cccc(CNc2nccc(-c3cccnc3)n2)c1 [ST47]
7,560,O=C(/C=C/c1cccc(CNc2cccc(OCC(F)F)c2)c1)NO [ST45]
8,1880,COc1ccc(NCC2C=C(/C=C/C(=O)NO)CCC2)cc1 (stereo not drawn) [ST36]
9,280,O=C(/C=C/c1cccc(CNc2nc(C(F)(F)F)co2)c1)NO [ST79]
10,5370,Cc1nnc(NCc2cccc(/C=C/C(=O)Nc3ccccc3N)c2)o1 [ST65]
11,1160,CCN(CC)c1cccc(NCc2cccc(/C=C/C(=O)NO)c2)c1 [ST41]
12,590,O=C(/C=C/c1cccc(CNc2cccc(N3CCCC3)c2)c1)NO [ST37]
13,270,O=C(/C=C/c1cccc(CNc2cccc(C3COC3)c2)c1)NO [ST43]
14,70,CN(C)Cc1ccc(NCc2cccc(/C=C/C(=O)NO)c2)cc1 [ST42]
15,2460,Nc1ccccc1NC(=O)/C=C/c1cccc(CNc2cccc(N3CCCCC3)c2)c1 [ST6]
16,790,O=C(/C=C/c1cccc(CNc2ccc(Cl)cc2)c1)NO [ST26]
17,2750,Nc1ccccc1NC(=O)CCCCC(NC(=O)c1ccccc1)C(=O)Nc1ccncc1 (stereo not drawn) [ST121]
18,670,O=C(/C=C/c1cccc(CNc2cccc(OC3CCC3)c2)c1)NO [ST28]
19,> 10000,Cc1nnc(NCc2cccc(/C=C/C(=O)NO)c2)o1 [ST76]
20,> 20000,CCOC(=O)NC(CCCCC(=O)Nc1cccc(Br)c1)C(=O)Nc1ccccc1N (stereo not drawn) [ST86]
21,3130,Cc1cnc(NCc2cccc(/C=C/C(=O)Nc3ccccc3N)c2)s1 [ST59]
22,140,O=C(/C=C/c1cccc(CNc2nc(-c3ccncc3)cs2)c1)NO [ST70]

row,IC50 [nM],SMILES
1,3680,CCOC(=O)NC(CCCCC(=O)Nc1ccccc1N)C(=O)Nc1ccccn1 (stereo not drawn) [ST126]
2,1020,O=C(/C=C/c1cccc(CNc2ccc(F)c(F)c2)c1)NO [ST24]
3,350,CC(C)Oc1cccc(NCc2cccc(/C=C/C(=O)NO)c2)c1 [ST27]
4,1620,Nc1ccccc1NC(=O)CCCCC(NC(=O)c1ccccn1)C(=O)Nc1cccnc1 (stereo not drawn) [ST122]
5,1250,CCC(=O)CNC(CCCCC(=O)NO)C(=O)Nc1cccc(Br)c1 (stereo not drawn) [ST114]
6,2000,CCOC(=O)NC(CCCCC(=O)Nc1ccccc1N)C(=O)Nc1cccnc1 (stereo not drawn) [ST123]
7,1550,O=C(/C=C/c1cccc(CNc2cccnc2)c1)NO [ST72]
8,560,CCOC(=O)NC(CCCCC(=O)Nc1ccccc1N)C(=O)Nc1cccc(Br)c1 (stereo not drawn) [ST80]
9,350,CC(C)CC(=O)N[C@@H](CCCCC(=O)Nc1ccccc1N)C(=O)Nc1cccc(Br)c1 [ST101]
10,2510,O=C(CCCC[C@@H](NC(=O)c1ccccc1)C(=O)NC1CC1)NO [ST128]
11,> 20000,CN(C)c1ccc(/C=C2C=C(/C=C/C(=O)NO)CCC/2)cc1 [ST30]
12,5040,Cc1nnc(NCc2cccc(/C=C/C(=O)Nc3ccccc3N)c2)s1 [ST60]
13,370,CN(C)c1cccc(NCc2cccc(/C=C/C(=O)NO)c2)c1 [ST33]
14,2550,Nc1ccccc1NC(=O)/C=C/c1cccc(CNc2nc3ccccc3s2)c1 [ST50]
15,3060,Cc1coc(NCc2cccc(/C=C/C(=O)Nc3ccccc3N)c2)n1 [ST67]
16,3060,Nc1ccccc1NC(=O)CCCCC(N)C(=O)Nc1cccc(Br)c1 (stereo not drawn) [ST87]
17,8030,Nc1ccccc1NC(=O)/C=C/c1cccc(CNc2nnc(C(F)(F)F)s2)c1 [ST61]
18,490,CCOC(=O)NC(CCCCC(=O)Nc1ccccc1N)C(=O)Nc1ccc2ncccc2c1 (stereo not drawn) [ST118]
19,260,CCOC(=O)NC(CCCCC(=O)NO)C(=O)Nc1cccc(Br)c1 (stereo not drawn) [ST113]
20,3010,Nc1ccccc1NC(=O)/C=C/c1cccc(C(C(=O)Nc2ccccc2)C(=O)Nc2ccccc2)c1 [ST58]
21,940,CCOC(=O)NC(CCCCC(=O)Nc1ccccc1N)C(=O)Nc1cccc2cccnc12 (stereo not drawn) [ST117]
22,260,CCN(C)c1cccc(NCc2cccc(/C=C/C(=O)NO)c2)c1 [ST38]

row,IC50 [nM],SMILES
1,270,Cc1[nH]c2ccccc2c1CCNc1cccc(/C=C/C(=O)NO)c1 [ST71]
2,2030,CCCCc1cccc(NCc2cccc(/C=C/C(=O)NO)c2)c1 [ST34]
3,> 20000,Nc1ccccc1NC(=O)/C=C/c1cccc(CNc2nc(-c3ccc(F)cc3)cs2)c1 [ST52]
4,950,O=C(/C=C/c1cccc(CNc2ccc(F)cc2F)c1)NO [ST25]
5,540,CCc1cccc(NCc2cccc(/C=C/C(=O)NO)c2)c1 [ST22]
6,1480,CCN1CCN(C(CCCCC(=O)Nc2ccccc2N)C(=O)Nc2cccc(Br)c2)C1=O (stereo not drawn) [ST105]
7,980,O=C(/C=C/c1cccc(C(=O)Nc2nc(-c3ccncc3)cs2)c1)NO [ST69]
8,1150,Cc1nnc(NCc2cccc(/C=C/C(=O)NO)c2)s1 [ST73]
9,930,CCOC(=O)NC(CCCCC(=O)Nc1ccccc1N)C(=O)Nc1cccc(SC(F)(F)F)c1 (stereo not drawn) [ST84]
10,500,CCOC(=O)NC(CCCCC(=O)Nc1ccccc1N)C(=O)Nc1cccc(SC)c1 (stereo not drawn) [ST82]
11,5220,Nc1ccccc1NC(=O)/C=C/c1cccc(CNc2cccc3cccnc23)c1 [ST56]
12,5940,Nc1ccccc1NC(=O)/C=C/c1cccc(CNc2cccc(Br)c2)c1 [ST2]
13,350,COC(=O)N[C@@H](CCCCC(=O)Nc1ccccc1N)C(=O)Nc1cccc(Br)c1 [ST103]
14,1530,CCOC(=O)NC(CCCCC(=O)Nc1ccccc1N)C(=O)Nc1cncc(OC)c1 (stereo not drawn) [ST124]
15,320,Nc1ccccc1NC(=O)CCCC[C@H](NC(=O)CC1CC1)C(=O)Nc1cccc(Br)c1 [ST98]
16,640,Cc1coc(NCc2cccc(/C=C/C(=O)NO)c2)n1 [ST77]
17,590,Nc1ccccc1NC(=O)CCCC[C@H](NC(=O)OCC1CC1)C(=O)Nc1cccc(Br)c1 [ST99]
18,> 20000,Cc1csc(NCc2cccc(/C=C/C(=O)NO)c2)n1 [ST78]
19,7320,CCCCNC(CCCCC(=O)Nc1ccccc1N)C(=O)Nc1cccc(Br)c1 (stereo not drawn) [ST88]
20,1110,CC(C)(C)OC(=O)N[C@@H](CCCCC(=O)Nc1ccccc1N)C(=O)Nc1cccc(Br)c1 [ST106]
21,3040,Nc1ccccc1NC(=O)/C=C/c1cccc(CNc2nc(C(F)(F)F)cs2)c1 [ST62]
22,560,O=C(/C=C/c1cccc(CNc2cccc(OC3COC3)c2)c1)NO [ST31]

row,IC50 [nM],SMILES
1,420,CCCC(=O)NC(CCCCC(=O)NO)C(=O)Nc1cccc(Br)c1 (stereo not drawn) [ST110]
2,191000,CC(C)Oc1cccc(NCc2cccc(/C=C/C(=O)Nc3ccccc3N)c2)c1 [ST5]
3,350,CCOc1cccc(NCc2cccc(/C=C/C(=O)NO)c2)c1 [ST21]
4,250,O=C(/C=C/c1cccc(CNc2cccc(N3CCOCC3)c2)c1)NO [ST32]
5,> 20000,Nc1ccccc1NC(=O)/C=C/c1cccc(C(=O)Nc2nc(-c3ccncc3)cs2)c1 [ST57]
6,1560,Nc1ccccc1NC(=O)CCCCC(NC(=O)c1ccccc1)C(=O)Nc1cccnc1 (stereo not drawn) [ST120]
7,2100,Nc1ccccc1NC(=O)/C=C/c1cccc(NC(=O)OCc2cccnc2)c1 [ST68]
8,410,O=C(/C=C/c1cccc(CNc2nc(C(F)(F)F)cs2)c1)NO [ST75]
9,460,CCCC(=O)NC(CCCCC(=O)Nc1ccccc1N)C(=O)Nc1cccc(Br)c1 (stereo not drawn) [ST90]
10,260,O=C(/C=C/c1cccc(CNc2cccc(N3CCNCC3)c2)c1)NO [ST40]
11,2510,Nc1ccccc1NC(=O)/C=C/c1cccc(CNc2cccc(N3CCCC3)c2)c1 [ST10]
12,850,CCOC(=O)NC(CCCCC(=O)Nc1ccccc1N)C(=O)Nc1cccc(C(C)(F)F)c1 (stereo not drawn) [ST81]
13,440,CCOC(=O)N[C@@H](CCCCC(=O)NO)C(=O)Nc1cccc(Br)c1 [ST107]
14,320,CSc1cccc(NCc2cccc(/C=C/C(=O)NO)c2)c1 [ST20]
15,4870,COc1cccc(NCc2cccc(/C=C/C(=O)Nc3ccccc3N)c2)c1 [ST3]
16,3530,CCN(CC)c1cccc(NCc2cccc(/C=C/C(=O)Nc3ccccc3N)c2)c1 [ST9]
17,380,COc1cccc(NCc2cc(F)cc(/C=C/C(=O)NO)c2)c1 [ST44]
18,940,O=C(CCCC[C@@H](NC(=O)c1ccccn1)C(=O)Nc1cccc(Br)c1)NO [ST111]
19,990,O=C(/C=C/c1cccc(CNc2ccc(F)cc2)c1)NO [ST17]
20,920,O=C(/C=C/c1cccc(CNc2ccccc2)c1)NO [ST15]
21,400,CCCC(=O)N[C@@H](CCCCC(=O)NO)C(=O)Nc1cccc(Br)c1 [ST108]
